Where two headings read alike, the source gives them in different places.
Tests used:
[1] = biological target: EGFR double mutation L858R/T790M (H1975 cells) (Homo sapiens (Human), UniProt P00533, L858R/T790M); assay: Phospho-EGFR signaling (immunoblotting, 1 hr) in H1975 cells; format: cell-based; conditions: signaling EC50 WT (A431) / H1975
Experimental: (§1) A431 human epidermoid carcinoma, H1975 human NSCLC and HCC827 human NSCLC adenocarcinoma cells were obtained from the American Type Culture Center (Manassas, Va.). A431 cells were grown in DMEM (Invitrogen, Carlsbad, Calif.) supplemented with 10% FBS (HyClone, South Logan, Utah) and 1% Penicillin-Streptomycin (P/S, Lonza, Walkersville, Md.).
(§2) All primary antibodies were obtained from Cell Signaling (Danvers, Mass.) and used at 1:1000. Secondary antibodies were used at 1:10,000. Goat anti-mouse IgG IRDye 800CW antibody was obtained from LiCor Biosciences (Lincoln, Nebr.) and goat anti-rabbit IgG Alexa Fluor 680 was obtained from Invitrogen.
(§3) Cells were grown in 12-well plates (Corning, Coring, N.Y.) to 90% confluence and then incubated in low-serum (0.1% FBS) media for 16-18 hr. […] A431 cells were then stimulated with 50 ng/ml EGF (Peprotech, Rocky Hill, N.J.) for 15 min. After treatment, cell monolayers were washed with cold PBS (Invitrogen) and immediately lysed by scrapping into 60 uL cold Cell Extraction Buffer (Invitrogen) supplemented with Complete Protease inhibitors (Roche, Indianapolis, Ind.) and PhosphoSTOP (Roche) phosphatase inhibitors.
(§4) Phospho-protein signals were quantitated using Odyssey Infrared Imaging (Li-Cor Biosciences).
(§5) To assess phosphor-EGFR signaling, blots were probed with rabbit anti-Phospho-EGFR (Y1068) and mouse total anti-EGFR antibodies. Phospho-EGFR signal was normalized to total EGFR expression for each sample. […] Normalized data was fitted using a sigmoidal curve analysis program (Graph Pad Prism version 5) with variable Hill slope to determine the EC50 values.

[2] = test system: A431 cells (WT EGFR); assay: Cell proliferation (CellTiter Glo, 72 hr) in A431 cells; format: cell-based; conditions: Homo sapiens, A-431
Experimental: as §1
(§6) Cells were plated in Growth Media supplemented with 5% FBS and 1% P/S at a density of 3,000 cells per well in 96 well tissue culture plates (Corning). […] Growth inhibition (GI50) values were determined by Graph Pad Prism.

[3] = test system: H1975 cells (EGFR L858R/T790M); assay: Cell proliferation (CellTiter Glo, 72 hr) in H1975 cells; format: cell-based, human; conditions: Homo sapiens, NCI-H1975
Experimental: as §1, §6

[4] = test system: HCC827 cells (EGFR delE746-A750); assay: Cell proliferation (CellTiter Glo, 72 hr) in HCC827 cells; format: cell-based, human; conditions: Homo sapiens
Experimental: as §1, §6

[5] = biological target: pEGFR in H1975 cells (Homo sapiens (Human), UniProt P00533, L858R/T790M); assay: Washout experiment in H1975 cells (pEGFR); format: cell-based; conditions: 500 nM for 1 hr; for pEGFR activity restored: 24 h after compound removal, by new protein synthesis; for inhibition at 0.5 µM: NCI-H1975
Experimental: Washout Experiment in H1975 Cells Containing EGFR Deletion/T790M Mutation
Cells were plated in Growth Media supplemented with 10% FBS and 1% P/S at a density of 2.0×10^5 cells per well in 12 well tissue culture plates. Cells were allowed to settle down for 4 hrs and then maintained in low-serum (0.1% FBS) media overnight.
The following morning the media was removed and the cells were treated with 500 nM test compound in low-serum media for 1 hr. The cells were washed free of compound 2× with PBS (Invitrogen). One set of cells were immediately lysed as indicated above as the 0 hr time point. The remaining cells were incubated with complete RPMI-1640 growth media (10% FBS) for 1, 3, 6 and 24 hr. For the first 1 hr, cells were washed 2× with PBS every 30 min. DMSO (0.5%) controls were collected at the 0, 3, 6 and 24 hr time points.

[6] = biological target: EGFR delE746-A750 deletion mutation (HCC827 cells) (Homo sapiens (Human), UniProt P00533, DEL746-750); assay: Phospho-EGFR signaling (immunoblotting, 1 hr) in HCC827 cells; format: cell-based; conditions: signaling EC50 WT (A431) / HCC827
Experimental: as §1, §2, §3, §4, §5

[7] = A431 cells, 72 hr, read-out: WT EGFR GI50
[8] = Table 2, A431 cells express WT EGFR, read-out: Comparative GI50 Values, A431
[9] = H1975 cells, 72 hr, read-out: H1975 GI50
[10] = Table 2, H1975 express EGFR L858R/T790M, read-out: Comparative GI50 Values, H1975
[11] = HCC827 cells, 72 hr, read-out: HCC827 GI50
[12] = Table 2, HCC827 express EGFR delE746-A750, read-out: Comparative GI50 Values, HCC827
[13] = 1 hr after compound removal, read-out: pEGFR phosphorylation inhibited
[14] = for at least 8 hours after compound was removed, read-out: pEGFR remained inhibited

Row | Ratio WT/mutant (H1975) [1] | GI50 [2, 7] [nM] | GI50 [2, 8] [nM] | GI50 [3, 9] [nM] | GI50 [3, 10] [nM] | GI50 [4, 11] [nM] | GI50 [4, 12] [nM] | pEGFR activity restored [5] | inhibition at 0.5 µM [5, 13] [%] | inhibition at 0.5 µM [5, 14] [%] | Ratio WT/mutant (HCC827) [6] | Compound
1 | >50 | > 1000 | > 1000 | 10 to 100 | 10 to 100 | 10 to 100 | 10 to 100 | 40-60% | 80 to 100 | 60 to 90 |  | C=CC(=O)Nc1cccc(Nc2nc(Nc3ccc(N4CCOCC4)cc3OC)ncc2C(F)(F)F)c1 [Compound I-2, N-(3-(2-(2-methoxy-4-morpholinophenylamino)-5-(trifluoromethyl)pyrimidin-4-ylamino)phenyl)acrylamide]
2 |  | 500 to 1000 | 500 to 1000 | 10 to 100 | 10 to 100 | 10 to 100 | 10 to 100 | 40-60% | 80 to 100 | 60 to 90 |  | C=CC(=O)Nc1cccc(Nc2nc(Nc3ccc(N4CCN(C(C)=O)CC4)cc3OC)ncc2C(F)(F)F)c1 [Compound I-4, N-(3-(2-(4-(4-acetylpiperazin-1-yl)-2-methoxyphenylamino)-5-(trifluoromethyl)pyrimidin-4-ylamino)phenyl)acrylamide]
3 | >15 | > 1000 |  | 100 to 500 |  | 10 to 100 |  |  |  |  |  | C=CC(=O)Nc1cccc(Oc2nc(Nc3ccc(N4CCN(C(=O)CO)CC4)cc3OC)ncc2C(F)(F)F)c1 [Compound I-11, N-(3-(2-(4-(4-(2-hydroxyacetyl)piperazin-1-yl)-2-methoxyphenylamino)-5-(trifluoromethyl)pyrimidin-4-yloxy)phenyl)acrylamide]
4 | >1 | 500 to 1000 |  | 100 to 500 |  | 10 to 100 |  |  |  |  |  | C=CC(=O)Nc1cccc(Nc2nc(Nc3ccc(N4CCN(C(=O)CO)CC4)cc3OC)ncc2Cl)c1 [Compound I-12, N-(3-(5-chloro-2-(4-(4-(2-hydroxyacetyl)piperazin-1-yl)-2-methoxyphenylamino)pyrimidin-4-ylamino)phenyl)acrylamide]
5 | >15 | > 1000 |  | 100 to 500 |  | 10 to 100 |  |  |  |  | >15 | C=CC(=O)Nc1cccc(Nc2nc(Nc3ccc(N4CCOCC4)cc3OC(F)F)ncc2C(F)(F)F)c1 [Compound I-14, N-(3-(2-(2-(difluoromethoxy)-4-morpholinophenylamino)-5-(trifluoromethyl)pyrimidin-4-ylamino)phenyl)acrylamide]
6 | >30 | > 1000 |  | 100 to 500 |  | 10 to 100 |  |  |  |  | >5 | C=CC(=O)Nc1cccc(Nc2nc(Nc3ccc(N4CCN(S(C)(=O)=O)CC4)cc3OC)ncc2C(F)(F)F)c1 [Compound I-17, N-(3-(2-(2-methoxy-4-(4-(methylsulfonyl)piperazin-1-yl)phenylamino)-5-(trifluoromethyl)pyrimidin-4-ylamino)phenyl)acrylamide]
7 | >5 | 500 to 1000 |  | 100 to 500 |  | 10 to 100 |  |  |  |  |  | C=CC(=O)Nc1cccc(Oc2nc(Nc3ccc(N4CCN(C(=O)NC)CC4)cc3OC)ncc2C(F)(F)F)c1 [Compound I-21, 4-(4-(4-(3-acrylamidophenoxy)-5-(trifluoromethyl)pyrimidin-2-ylamino)-3-methoxyphenyl)-N-methylpiperazine-1-carboxamide]
8 | >35 | > 1000 |  | 100 to 500 |  | 10 to 100 |  |  |  |  |  | C=CC(=O)Nc1cccc(Oc2nc(Nc3ccc(N4CCN(S(C)(=O)=O)CC4)cc3OC)ncc2C(F)(F)F)c1 [Compound I-22, N-(3-(2-(2-methoxy-4-(4-(methylsulfonyl)piperazin-1-yl)phenylamino)-5-(trifluoromethyl)pyrimidin-4-yloxy)phenyl)acrylamide]
9 | >40 | > 1000 |  | > 1000 |  | 10 to 100 |  |  |  |  |  | C=CC(=O)Nc1cccc(Oc2nc(Nc3ccc(N4CCN(S(C)(=O)=O)CC4)cc3OC)ncc2Cl)c1 [Compound I-26, N-(3-(5-chloro-2-(2-methoxy-4-(4-(methylsulfonyl)piperazin-1-yl)phenylamino)pyrimidin-4-yloxy)phenyl)acrylamide]
10 | >50 | > 1000 |  | 10 to 100 |  | 100 to 500 |  |  |  |  |  | C=CC(=O)Nc1cccc(Nc2nc(Nc3ccc(N4CCN(C(C)=O)CC4)cc3OC(F)(F)F)ncc2C(F)(F)F)c1 [Compound I-33, N-(3-(2-(4-(4-acetylpiperazin-1-yl)-2-(trifluoromethoxy)phenylamino)-5-(trifluoromethyl)pyrimidin-4-ylamino)phenyl)acrylamide]
11 | >35 | > 1000 |  | 100 to 500 |  | 10 to 100 |  |  |  |  |  | C=CC(=O)Nc1cccc(Nc2nc(Nc3ccc(N4CCN(C(=O)C(C)(C)C)CC4)cc3OC)ncc2C(F)(F)F)c1 [Compound I-34, N-(3-(2-(2-methoxy-4-(4-pivaloylpiperazin-1-yl)phenylamino)-5-(trifluoromethyl)pyrimidin-4-ylamino)phenyl)acrylamide]
12 | >1 | 500 to 1000 |  | 100 to 500 |  | 10 to 100 |  |  |  |  |  | C=CC(=O)Nc1cccc(Nc2nc(Nc3ccc(N4CCN(C(C)=O)CC4)cc3OC)ncc2Br)c1 [Compound I-40, N-(3-(2-(4-(4-acetylpiperazin-1-yl)-2-methoxyphenylamino)-5-bromopyrimidin-4-ylamino)phenyl)acrylamide]
13 | >1 | > 1000 |  | 100 to 500 |  | 10 to 100 |  |  |  |  |  | C=CC(=O)Nc1cccc(Nc2nc(Nc3ccc(N4CCN(S(C)(=O)=O)CC4)cc3OC)ncc2Cl)c1 [Compound I-41, N-(3-(5-chloro-2-(2-methoxy-4-(4-(methylsulfonyl)piperazin-1-yl)phenylamino)pyrimidin-4-ylamino)phenyl)acrylamide]
14 | >5 | > 1000 |  | 500 to 1000 |  | 500 to 1000 |  |  |  |  |  | C=CC(=O)Nc1cccc(Nc2nc(Nc3ccc(N4CCCN(C(=O)OC(C)(C)C)CC4)cc3OC)ncc2C(F)(F)F)c1 [Compound I-44, tert-butyl 4-(4-(4-(3-acrylamidophenylamino)-5-(trifluoromethyl)pyrimidin-2-ylamino)-3-methoxyphenyl)-1,4-diazepane-1-carboxylate]
15 | >50 | > 1000 |  | 10 to 100 |  | 10 to 100 |  |  |  |  |  | C=CC(=O)Nc1cccc(Nc2nc(Nc3ccc(N4CCN(C(C)=O)[C@H](C(=O)OC)C4)cc3OC)ncc2C(F)(F)F)c1 [Compound I-48]
16 | >20 | > 1000 |  | 100 to 500 |  | 10 to 100 |  |  |  |  |  | C=CC(=O)Nc1cccc(Nc2nc(Nc3ccc(N4CCS(=O)(=O)CC4)cc3OC)ncc2C(F)(F)F)c1 [Compound I-49, N-(3-(2-(2-methoxy-4,4-dioxo-4-thiomorpholinophenylamino)-5-(trifluoromethyl)pyrimidin-4-ylamino)phenyl)acrylamide]

— patent US10434101B2, “Heterocyclic compounds and uses thereof” (Celgene CAR LLC, priority 2010, dated 2019)
